Here are results for 2 molecules from patent US8519003B2, “Phenoxyphenylamidines as fungicides” (priority 2007, dated 2013).

A short description of data set [1]: logP determination (acidic / HCOOH and neutral). The note with it: for chromatographic logP: acidic, HCOOH (formic acid).
Another data set has as its system Uromyces appendiculatus. The data set is described as follows: Uromyces test (bean)/protective. It counts as in vivo. The note with it: protective, active compound concentration 10 ppm, evaluation 10 days after inoculation. On the procedure: (§1) Uromyces Test (Bean)/Protective [table] To produce a suitable preparation of active compound, 1 part by weight of N-ethyl-N-methyl-N′-[4-phenoxy-2,5-xylyl]formamidine (according to formula (1)) is mixed with the stated amounts of solvent and emulsifier, and the concentrate is diluted with water to the desired concentration. To test for protective activity, young plants are sprayed with the active compound preparation at the stated application rate. After the spray coating has dried on, the plants are inoculated with an aqueous spore suspension of the bean rust pathogen Uromyces appendiculatus and then remain in an incubation cabin at about 20° C. and 100% relative atmospheric humidity for 1 day. The plants are then placed in a greenhouse at about 21° C. and a relative atmospheric humidity of about 90%. Evaluation is carried out 10 days after the inoculation. 0% means an efficacy which corresponds to that of the control, whereas an efficacy of 100% means that no infection is observed.

For data set [2], the system named is Erysiphe graminis f. sp. hordei. In words: Erysiphe test (barley)/protective. In kind it is in vivo. The note with it: protective, active compound concentration 500 ppm, evaluation 7 days after inoculation. On the procedure:
Erysiphe Test (Barley)/Protective [table] To produce a suitable preparation of active compound, 1 part by weight of N-ethyl-N-methyl-N′-[4-phenoxy-2,5-xylyl]formamidine (according to formula (1)) is mixed with the stated amounts of solvent and emulsifier, and the concentrate is diluted with water to the desired concentration. To test for protective activity, young cereal plants are sprayed with the active compound preparation at the stated application rate. 1 day after the treatment, the plants are inoculated with spores of Erysiphe graminis f. sp. hordei. The plants are then placed in a greenhouse at 70% relative atmospheric humidity and a temperature of 18° C. Evaluation is carried out 7 days after the inoculation. 0% means an efficacy which corresponds to that of the control, whereas an efficacy of 100% means that no infection is observed.

The next data set relates to Podosphaera leucotricha. In words: Podosphaera test (apple)/protective. It counts as in vivo. The note with it: protective, active compound concentration 100 ppm, evaluation 10 days after inoculation. On the procedure:
as §1, with “Podosphaera” for “Uromyces”, “(Apple)/Protective” for “(Bean)/Protective”, “apple mildew” for “bean rust”, “Podosphaera leucotricha.” for “Uromyces appendiculatus and then remain in an incubation cabin at about 20° C. and 100% relative atmospheric humidity for 1 day.”, “23°” for “21°”, “70%.” for “90%.”

The test system of the next data set is Sphaerotheca fuliginea. The data set is described as follows: Sphaerotheca test (cucumber)/protective. In kind it is in vivo. The note with it: protective, active compound concentration 100 ppm, evaluation 7 days after inoculation. The protocol: Sphaerotheca Test (Cucumber)/Protective [table] To produce a suitable preparation of active compound, 1 part by weight of N-ethyl-N-methyl-N′-[4-phenoxy-2,5-xylyl]formamidine (according to formula (1)) is mixed with the stated amounts of solvent and emulsifier, and the concentrate is diluted with water to the desired concentration. To test for protective activity, young plants are sprayed with the active compound preparation at the stated application rate. After the spray coating has dried on, the plants are inoculated with an aqueous spore suspension of Sphaerotheca fuliginea. The plants are then placed in a greenhouse at about 23° C. and a relative atmospheric humidity of about 90%. Evaluation is carried out 7 days after the inoculation. 0% means an efficacy which corresponds to that of the control, whereas an efficacy of 100% means that no infection is observed.

Broadly, the logP is the decadic logarithm of the partition coefficient of the neutral form, usually between octanol and water. A word on the chromatographic logP: it is lipophilicity estimated from chromatographic retention. A higher chromatographic logP goes with a more lipophilic compound. As for `CCN(C)C=Nc1cc(C)c(Oc2ccccc2)cc1C` [(1), N-ethyl-N-methyl-N′-[4-phenoxy-2,5-xylyl]formamidine], the logP in data set [1] came out at 4.67. The chromatographic logP in data set [1] was determined as 1.87. The efficacy (in the data set with Uromyces appendiculatus; in data set [2]; with Podosphaera leucotricha; in the data set with Sphaerotheca fuliginea) was no less than 70% throughout.
With `Cc1cc(Oc2ccccc2)c(C)cc1N` [4-phenoxy-2,5-xylidine], in data set [1], the chromatographic logP was 1.92.
